# Experimental data: PubChem BioAssay (NCI)
#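 Interpolation was linear, between the two tested concentrations surrounding the appropriate level; five concentrations were tested over 48 hours in 96-well plates. At the GI50, growth is halved. TGI: total growth inhibition.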
# How the values were obtained:
# Experiment in all cases: NCI-60 cell line screen, 48 h
# HL-60(TB) leukemia = tested on: HL-60(TB) leukemia
# CAKI-1 renal = tested on: CAKI-1 renal
# ACHN renal = tested on: ACHN renal
# SK-OV-3 ovarian = tested on: SK-OV-3 ovarian
# HCC-2998 colon = tested on: HCC-2998 colon
# UACC-257 melanoma = tested on: UACC-257 melanoma
# PC-3 prostate = tested on: PC-3 prostate
# NCI-H226 lung = tested on: NCI-H226 lung
# MDA-MB-231 breast = tested on: MDA-MB-231 breast
# HOP-92 NSCLC = tested on: HOP-92 NSCLC
# 786-0 renal = tested on: 786-0 renal
# IGROV1 ovarian = tested on: IGROV1 ovarian
# OVCAR-3 ovarian = tested on: OVCAR-3 ovarian
# MCF7 breast = tested on: MCF7 breast
# COLO 205 colon = tested on: COLO 205 colon
# RPMI-8226 leukemia = tested on: RPMI-8226 leukemia
# RXF 393 renal = tested on: RXF 393 renal
# M14 melanoma = tested on: M14 melanoma
# SNB-19 CNS = tested on: SNB-19 CNS
# A498 renal = tested on: A498 renal
# SF-268 CNS = tested on: SF-268 CNS
# TK-10 renal = tested on: TK-10 renal
# BT-549 breast = tested on: BT-549 breast
# OVCAR-5 ovarian = tested on: OVCAR-5 ovarian
# HS 578T breast = tested on: HS 578T breast
# SW-620 colon = tested on: SW-620 colon
# SF-539 CNS = tested on: SF-539 CNS
# UACC-62 melanoma = tested on: UACC-62 melanoma
# NCI-H23 lung = tested on: NCI-H23 lung
# LOX IMVI melanoma = tested on: LOX IMVI melanoma
# HCT-116 colon = tested on: HCT-116 colon
# KM12 colon = tested on: KM12 colon
# MDA-MB-435 = tested on: MDA-MB-435
# UO-31 renal = tested on: UO-31 renal
# SK-MEL-2 melanoma = tested on: SK-MEL-2 melanoma
# HOP-62 NSCLC = tested on: HOP-62 NSCLC
# EKVX NSCLC = tested on: EKVX NSCLC
# OVCAR-4 ovarian = tested on: OVCAR-4 ovarian
# A549 NSCLC = tested on: A549 NSCLC
# SF-295 CNS = tested on: SF-295 CNS
# OVCAR-8 ovarian = tested on: OVCAR-8 ovarian
# T-47D breast = tested on: T-47D breast
# K-562 leukemia = tested on: K-562 leukemia
# HCT-15 colon = tested on: HCT-15 colon
# SK-MEL-5 melanoma = tested on: SK-MEL-5 melanoma
# U251 CNS = tested on: U251 CNS
# HT29 colon = tested on: HT29 colon
# SNB-75 CNS = tested on: SNB-75 CNS
# NCI/ADR-RES ovarian = tested on: NCI/ADR-RES ovarian
# CCRF-CEM leukemia = tested on: CCRF-CEM leukemia
# SK-MEL-28 melanoma = tested on: SK-MEL-28 melanoma
# NCI-H522 lung = tested on: NCI-H522 lung
# DU-145 prostate = tested on: DU-145 prostate
# SN12C renal = tested on: SN12C renal
# MALME-3M melanoma = tested on: MALME-3M melanoma
smiles,measurement,setting,value
O=C(O)c1cn(C2CC2)c2cc(N3CCN(Cc4c(O)ccc5ccccc45)CC3)c(F)cc2c1=O,GI50,HL-60(TB) leukemia,> 100 µM
same,TGI,HL-60(TB) leukemia,> 100 µM
same,GI50,CAKI-1 renal,3.29 µM
same,TGI,CAKI-1 renal,> 100 µM
same,GI50,ACHN renal,29.6 µM
same,TGI,ACHN renal,> 100 µM
same,GI50,SK-OV-3 ovarian,11.7 µM
same,TGI,SK-OV-3 ovarian,> 100 µM
same,GI50,HCC-2998 colon,> 100 µM
same,TGI,HCC-2998 colon,> 100 µM
same,GI50,UACC-257 melanoma,> 100 µM
same,TGI,UACC-257 melanoma,> 100 µM
same,GI50,PC-3 prostate,3.75 µM
same,TGI,PC-3 prostate,> 100 µM
same,GI50,NCI-H226 lung,5.45 µM
same,TGI,NCI-H226 lung,> 100 µM
same,GI50,MDA-MB-231 breast,5.15 µM
same,TGI,MDA-MB-231 breast,> 100 µM
same,GI50,HOP-92 NSCLC,2.46 µM
same,TGI,HOP-92 NSCLC,8.88 µM
same,GI50,786-0 renal,2.58 µM
same,TGI,786-0 renal,7.05 µM
same,GI50,IGROV1 ovarian,9.64 µM
same,TGI,IGROV1 ovarian,> 100 µM
same,GI50,OVCAR-3 ovarian,3.4 µM
same,TGI,OVCAR-3 ovarian,22.6 µM
same,GI50,MCF7 breast,5.63 µM
same,TGI,MCF7 breast,> 100 µM
same,GI50,COLO 205 colon,5.13 µM
same,TGI,COLO 205 colon,> 100 µM
same,GI50,RPMI-8226 leukemia,12 µM
same,TGI,RPMI-8226 leukemia,> 100 µM
same,GI50,RXF 393 renal,2.68 µM
same,TGI,RXF 393 renal,8.34 µM
same,GI50,M14 melanoma,3.95 µM
same,TGI,M14 melanoma,> 100 µM
same,GI50,SNB-19 CNS,91.5 µM
same,TGI,SNB-19 CNS,> 100 µM
same,GI50,A498 renal,1.48 µM
same,TGI,A498 renal,4.47 µM
same,GI50,SF-268 CNS,56.8 µM
same,TGI,SF-268 CNS,> 100 µM
same,GI50,TK-10 renal,2.66 µM
same,TGI,TK-10 renal,8.38 µM
same,GI50,BT-549 breast,3.5 µM
same,TGI,BT-549 breast,48.7 µM
same,GI50,OVCAR-5 ovarian,> 100 µM
same,TGI,OVCAR-5 ovarian,> 100 µM
same,GI50,HS 578T breast,2.74 µM
same,TGI,HS 578T breast,17.2 µM
same,GI50,SW-620 colon,4.12 µM
same,TGI,SW-620 colon,> 100 µM
same,GI50,SF-539 CNS,2.1 µM
same,TGI,SF-539 CNS,4.9 µM
same,GI50,UACC-62 melanoma,13.5 µM
same,TGI,UACC-62 melanoma,> 100 µM
same,GI50,NCI-H23 lung,4.63 µM
same,TGI,NCI-H23 lung,> 100 µM
same,GI50,LOX IMVI melanoma,4.67 µM
same,TGI,LOX IMVI melanoma,> 100 µM
same,GI50,HCT-116 colon,2.37 µM
same,TGI,HCT-116 colon,6.17 µM
same,GI50,KM12 colon,9.18 µM
same,TGI,KM12 colon,> 100 µM
same,GI50,MDA-MB-435,4.18 µM
same,TGI,MDA-MB-435,> 100 µM
same,GI50,UO-31 renal,3.71 µM
same,TGI,UO-31 renal,> 100 µM
same,GI50,SK-MEL-2 melanoma,15.1 µM
same,TGI,SK-MEL-2 melanoma,> 100 µM
same,GI50,HOP-62 NSCLC,3.99 µM
same,TGI,HOP-62 NSCLC,43.1 µM
same,GI50,EKVX NSCLC,> 100 µM
same,TGI,EKVX NSCLC,> 100 µM
same,GI50,OVCAR-4 ovarian,7 µM
same,TGI,OVCAR-4 ovarian,> 100 µM
same,GI50,A549 NSCLC,4.03 µM
same,TGI,A549 NSCLC,> 100 µM
same,GI50,SF-295 CNS,8.22 µM
same,TGI,SF-295 CNS,> 100 µM
same,GI50,OVCAR-8 ovarian,4.61 µM
same,TGI,OVCAR-8 ovarian,> 100 µM
same,GI50,T-47D breast,> 100 µM
same,TGI,T-47D breast,> 100 µM
same,GI50,K-562 leukemia,> 100 µM
same,TGI,K-562 leukemia,> 100 µM
same,GI50,HCT-15 colon,3.64 µM
same,TGI,HCT-15 colon,> 100 µM
same,GI50,SK-MEL-5 melanoma,5.45 µM
same,TGI,SK-MEL-5 melanoma,> 100 µM
same,GI50,U251 CNS,19 µM
same,TGI,U251 CNS,> 100 µM
same,GI50,HT29 colon,8.5 µM
same,TGI,HT29 colon,> 100 µM
same,GI50,SNB-75 CNS,1.94 µM
same,TGI,SNB-75 CNS,17.8 µM
same,GI50,NCI/ADR-RES ovarian,11.4 µM
same,TGI,NCI/ADR-RES ovarian,> 100 µM
same,GI50,CCRF-CEM leukemia,20.5 µM
same,TGI,CCRF-CEM leukemia,> 100 µM
same,GI50,SK-MEL-28 melanoma,6.32 µM
same,TGI,SK-MEL-28 melanoma,> 100 µM
same,GI50,NCI-H522 lung,2.82 µM
same,TGI,NCI-H522 lung,> 100 µM
same,GI50,DU-145 prostate,3.78 µM
same,TGI,DU-145 prostate,> 100 µM
same,GI50,SN12C renal,5.38 µM
same,TGI,SN12C renal,> 100 µM
same,GI50,MALME-3M melanoma,4.07 µM
same,TGI,MALME-3M melanoma,> 100 µM
